# Laboratory results published in patent publication US9302999B2, “Substituted triazoles as herbicides” (E. I. DU PONT DE NEMOURS AND COMPANY, priority 2012, dated 2016).
# Read-outs that look alike come from different tables or passages of the source.
# Assays:
# Type in all cases: in vivo
# [1] = test system: velvetleaf (Abutilon theophrasti); experiment: Test A pre-/postemergence: velvetleaf; conditions: Abutilon theophrasti, 240 h; for pest or weed control at 125 g/ha: 125 g ai/ha; for pest or weed control at 500 g/ha: 500 g ai/ha
# How it was run: (§1)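 Each species received preemergence soil-directed spraying and, at the same time, postemergence treatment of seedlings 2–10 cm tall. Formulation: non-phytotoxic solvent mixture including surfactant. Response assessed visually about ten days on, relative to untreated controls, 0–100 scale.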
# [2] = test system: morningglory (Ipomoea coccinea); experiment: Test C pre-/postemergence: morningglory
# How it was run: (§2)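 Visual injury scored 0–100 (100 = complete control) against untreated controls after 13–15 greenhouse days. Surfactant-containing solvent formulations applied either to soil after sowing (loam/sand) or over 1- to 4-leaf plants, 2–18 cm tall.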
# [3] = test system: morningglory (Ipomoea spp.); experiment: Test A pre-/postemergence: morningglory; conditions: Ipomoea, 240 h; for pest or weed control at 125 g/ha: 125 g ai/ha; for pest or weed control at 500 g/ha: 500 g ai/ha
# How it was run: as §1
# [4] = test system: velvetleaf (Abutilon theophrasti); experiment: Test C pre-/postemergence: velvetleaf
# How it was run: as §2
# corn (Zea mays) = experiment: Test C pre-/postemergence: corn
# How it was run: as §2
# [5] = test system: ragweed (common ragweed, Ambrosia elation); experiment: Test C pre-/postemergence: ragweed
# How it was run: as §2
# [6] = test system: wheat (Triticum aestivum); experiment: Test A pre-/postemergence: wheat; conditions: Triticum aestivum, 240 h; for plant injury at 125 g/ha: 125 g ai/ha; for plant injury at 500 g/ha: 500 g ai/ha
# How it was run: as §1
# [7] = test system: pigweed (Amaranthus retroflexus); experiment: Test A pre-/postemergence: pigweed; conditions: Amaranthus retroflexus, 240 h; for pest or weed control at 125 g/ha: 125 g ai/ha; for pest or weed control at 500 g/ha: 500 g ai/ha
# How it was run: as §1
# [8] = test system: foxtail, giant (giant foxtail, Setaria faberii); experiment: Test A pre-/postemergence: foxtail, giant; conditions: Setaria faberi, 240 h; for pest or weed control at 125 g/ha: 125 g ai/ha; for pest or weed control at 500 g/ha: 500 g ai/ha
# How it was run: as §1
# [9] = test system: chickweed (common chickweed, Stellaria media); experiment: Test C postemergence: chickweed
# How it was run: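 Response values are visual ratings, 0 (no effect) to 100 (complete control), made by comparison with untreated controls 13 to 15 days after postemergence treatment of greenhouse-grown potted plants that were 2 to 18 cm high at spraying.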
# [10] = test system: winter wheat (Triticum aestivum); experiment: Test C pre-/postemergence: winter wheat
# How it was run: as §2
# kochia (Kochia scoparia) = experiment: Test C pre-/postemergence: kochia
# How it was run: as §2
# [11] = Postemergence, 31 g ai/ha, scale 0 to 100 (0 no effect, 100 complete control)
# [12] = Postemergence, 62 g ai/ha, scale 0 to 100 (0 no effect, 100 complete control)
# [13] = Postemergence, 125 g ai/ha, scale 0 to 100, 0 no effect, 100 complete control
# [14] = Postemergence, 250 g ai/ha, scale 0 to 100
# [15] = Preemergence, 31 g ai/ha, scale of 0 to 100, 0 is no effect, 100 is complete control
# [16] = Preemergence, 62 g ai/ha, scale of 0 to 100, 0 is no effect, 100 is complete control
# [17] = Preemergence, 125 g ai/ha, scale 0 to 100, 0 no effect, 100 complete control
# [18] = Preemergence, 250 g ai/ha, scale 0 to 100, 0 no effect, 100 complete control
structure (smiles),measurement,setting,value
"Cc1nn(-c2ccc(F)cc2)nc1Oc1ccnc(C(F)(F)F)c1 [Compound 129, 4-[[2-(4-fluorophenyl)-5-methyl-2H-1,2,3-triazol-4-yl]oxy]-2-(trifluoromethyl)pyridine]",pest or weed control at 125 g/ha,"[1]; post-emergence, Postemergence, 0 to 100 scale, 0 is no effect, 100 is complete control, read-out: Velvetleaf plant response rating",70%
same,pest or weed control at 500 g/ha,"[1]; post-emergence, Postemergence, visual rating on 0 to 100 scale (0 no effect, 100 complete control), approximately ten days, read-out: Velvetleaf plant response rating",100%
same,pest or weed control at 125 g/ha,"[1]; pre-emergence, Preemergence, 0 to 100 scale where 0 is no effect and 100 is complete control, read-out: Plant response rating, Velvetleaf",60%
same,pest or weed control at 500 g/ha,"[1]; pre-emergence, Preemergence, 0 to 100 scale (0 no effect, 100 complete control), read-out: Plant response rating, Velvetleaf",70%
same,"Plant response rating, Morningglory",[2]; [11],50
same,"Plant response rating, Morningglory",[2]; [12],55
same,"Plant response rating, Morningglory",[2]; [13],65
same,"Plant response rating, Morningglory",[2]; [14],75
same,"Plant response rating, Morningglory",[2]; [15],0
same,"Plant response rating, Morningglory",[2]; [16],20
same,"Plant response rating, Morningglory",[2]; [17],60
same,"Plant response rating, Morningglory",[2]; [18],65
same,pest or weed control at 125 g/ha,"[3]; post-emergence, Postemergence, 0 to 100 scale, 0 is no effect, 100 is complete control, read-out: Morningglory plant response rating",100%
same,pest or weed control at 500 g/ha,"[3]; post-emergence, Postemergence, visual rating on 0 to 100 scale (0 no effect, 100 complete control), approximately ten days, read-out: Morningglory plant response rating",100%
same,pest or weed control at 125 g/ha,"[3]; pre-emergence, Preemergence, 0 to 100 scale where 0 is no effect and 100 is complete control, read-out: Plant response rating, Morningglory",50%
same,pest or weed control at 500 g/ha,"[3]; pre-emergence, Preemergence, 0 to 100 scale (0 no effect, 100 complete control), read-out: Plant response rating, Morningglory",60%
same,"Plant response rating, Velvetleaf",[4]; [11],45
same,"Plant response rating, Velvetleaf",[4]; [12],45
same,"Plant response rating, Velvetleaf",[4]; [13],80
same,"Plant response rating, Velvetleaf",[4]; [14],100
same,"Plant response rating, Velvetleaf",[4]; [15],0
same,"Plant response rating, Velvetleaf",[4]; [16],10
same,"Plant response rating, Velvetleaf",[4]; [17],45
same,"Plant response rating, Velvetleaf",[4]; [18],95
same,"Plant response rating, Corn",corn (Zea mays); [11],10
same,"Plant response rating, Corn",corn (Zea mays); [12],15
same,"Plant response rating, Corn",corn (Zea mays); [13],40
same,"Plant response rating, Corn",corn (Zea mays); [14],65
same,"Plant response rating, Corn",corn (Zea mays); [15],0
same,"Plant response rating, Corn","corn (Zea mays); Preemergence, 62 g ai/ha, scale 0 to 100, 0 no effect, 100 complete control",10
same,"Plant response rating, Corn",corn (Zea mays); [17],45
same,"Plant response rating, Corn",corn (Zea mays); [18],65
same,"Plant response rating, Ragweed",[5]; [11],40
same,"Plant response rating, Ragweed",[5]; [12],40
same,"Plant response rating, Ragweed",[5]; [13],45
same,"Plant response rating, Ragweed",[5]; [14],45
same,"Plant response rating, Ragweed",[5]; [15],0
same,"Plant response rating, Ragweed",[5]; [16],0
same,"Plant response rating, Ragweed",[5]; [17],0
same,"Plant response rating, Ragweed",[5]; [18],55
same,plant injury at 125 g/ha,"[6]; post-emergence, Postemergence, 0 to 100 scale, 0 is no effect, 100 is complete control, read-out: Wheat plant response rating",20%
same,plant injury at 500 g/ha,"[6]; post-emergence, Postemergence, visual rating on 0 to 100 scale (0 no effect, 100 complete control), approximately ten days, read-out: Wheat plant response rating",30%
same,plant injury at 125 g/ha,"[6]; pre-emergence, Preemergence, 0 to 100 scale where 0 is no effect and 100 is complete control, read-out: Plant response rating, Wheat",10%
same,plant injury at 500 g/ha,"[6]; pre-emergence, Preemergence, 0 to 100 scale (0 no effect, 100 complete control), read-out: Plant response rating, Wheat",50%
same,pest or weed control at 125 g/ha,"[7]; post-emergence, Postemergence, 0 to 100 scale, 0 is no effect, 100 is complete control, read-out: Pigweed plant response rating",100%
same,pest or weed control at 500 g/ha,"[7]; post-emergence, Postemergence, visual rating on 0 to 100 scale (0 no effect, 100 complete control), approximately ten days, read-out: Pigweed plant response rating",100%
same,pest or weed control at 125 g/ha,"[7]; pre-emergence, Preemergence, 0 to 100 scale where 0 is no effect and 100 is complete control, read-out: Plant response rating, Pigweed",100%
same,pest or weed control at 500 g/ha,"[7]; pre-emergence, Preemergence, 0 to 100 scale (0 no effect, 100 complete control), read-out: Plant response rating, Pigweed",100%
same,pest or weed control at 125 g/ha,"[8]; post-emergence, Postemergence, 0 to 100 scale, 0 is no effect, 100 is complete control, read-out: Foxtail, Giant plant response rating",90%
same,pest or weed control at 500 g/ha,"[8]; post-emergence, Postemergence, visual rating on 0 to 100 scale (0 no effect, 100 complete control), approximately ten days, read-out: Foxtail, Giant plant response rating",90%
same,pest or weed control at 125 g/ha,"[8]; pre-emergence, Preemergence, 0 to 100 scale where 0 is no effect and 100 is complete control, read-out: Plant response rating, Foxtail, Giant",100%
same,pest or weed control at 500 g/ha,"[8]; pre-emergence, Preemergence, 0 to 100 scale (0 no effect, 100 complete control), read-out: Plant response rating, Foxtail, Giant",100%
same,"Plant response rating, Chickweed","[9]; 31 g ai/ha, scale 0 to 100 (0 no effect, 100 complete control)",15
same,"Plant response rating, Chickweed","[9]; 62 g ai/ha, scale 0 to 100 (0 no effect, 100 complete control)",45
same,"Plant response rating, Chickweed","[9]; 125 g ai/ha, scale 0 to 100, 0 no effect, 100 complete control",80
same,"Plant response rating, Chickweed","[9]; 250 g ai/ha, scale 0 to 100",98
same,"Plant response rating, Wheat",[10]; [11],20
same,"Plant response rating, Wheat",[10]; [12],25
same,"Plant response rating, Wheat",[10]; [13],30
same,"Plant response rating, Wheat",[10]; [14],40
same,"Plant response rating, Wheat",[10]; [15],0
same,"Plant response rating, Wheat",[10]; [16],20
same,"Plant response rating, Wheat",[10]; [17],30
same,"Plant response rating, Wheat",[10]; [18],60
same,"Plant response rating, Kochia",kochia (Kochia scoparia); [11],95
same,"Plant response rating, Kochia",kochia (Kochia scoparia); [12],95
same,"Plant response rating, Kochia",kochia (Kochia scoparia); [13],98
same,"Plant response rating, Kochia",kochia (Kochia scoparia); [14],98
same,"Plant response rating, Kochia",kochia (Kochia scoparia); [15],5
same,"Plant response rating, Kochia",kochia (Kochia scoparia); [16],90
same,"Plant response rating, Kochia",kochia (Kochia scoparia); [17],90
same,"Plant response rating, Kochia",kochia (Kochia scoparia); [18],95
